Laboratory results: publication PMC7560154, “Novel Antimicrobial Peptide from Temporin L in The Treatment of Staphylococcus pseudintermedius and Malassezia pachydermatis in Polymicrobial Inter-Kingdom Infection” (Antibiotics, 2020)
≈ marks a conversion by molar mass, not a printed value. Where a SMILES comes first, the peptide text is derived from it. [ ]: non-standard residue; d: D form.

Assays:
[1] = test system: MRSP mature biofilm; assay: Mature biofilm biomass, crystal violet assay, MRSP; format: cell-based, Staphylococcus pseudintermedius; conditions: MRSP one-day-old biofilm, up to 25 μM, 24 h
Experimental: (§1) Biofilms were allowed to form in each well of a 96-well microtiter plate, as described by Stepanovic. After 24 h, planktonic cells were aspirated, and the plates were washed with 200 μL of PBS. Cells biofilms were exposed to 200 μL of peptide 8 at the final concentration ranging from 6.25 to 25 μM and the plate was further incubated for 24 h at 37 °C. Positive controls were non-treated cells incubated with 200 μL of medium broth. At the end of the experiment crystal violet-staining was performed to assess biofilm mass.

[2] = test system: MSSP mature biofilm; assay: Mature biofilm metabolic activity, XTT assay, MSSP; format: cell-based, Staphylococcus pseudintermedius; conditions: 24 h
Experimental: The metabolic activity of MSSP and MRSP mature biofilms was quantified by the XTT [2,3-bis(2-methyloxy-4-nitro-5-sulfophenyl)-2H-tetrazolium-5-carboxanilide] (Roche Diagnostics, Germany) reduction assay. The assay was conducted as previously described with some modifications. XTT (150 µL) was added to biofilms in each well and the plates were incubated for 40 min at 37 °C in the dark. The reduction of the tetrazolium salt by cellular dehydrogenase into orange formazan dye was photometrically measured at 490 nm. The medium was set as negative control. Viability values for each well were compared to controls.

[3] = test system: MSSP biofilm formation; assay: Biofilm formation, crystal violet assay, MSSP; format: cell-based, Staphylococcus pseudintermedius; conditions: sub-MIC 0.095 to 0.78 μM, 24 h
Experimental: Anti-biofilm activity of peptide 8 was examined by the crystal violet assay previously described with minor modifications. Microtiter plates were inoculated with bacteria at a final density of 10^6 CFU/mL and treated with peptide 8 ranging from 0.095 to 0.78 μM. Control cells were grown in the absence of peptide 8. After 24 h incubation at 37 °C, the supernatant was gently removed, and the wells were rinsed twice with PBS. The amount of biofilm formed in the wells was measured by crystal violet staining and the absorbance of the solution was measured at 595 nm.

[4] = test system: methicillin-resistant S. pseudintermedius (MRSP); assay: microbe, parasite or virus in culture; format: cell-based, Staphylococcus pseudintermedius
Experimental: (§2) MIC of all compounds was determined in Sabouraud Dextrose broth with 1% tween 80 (SB) medium, for M. pachydermatis, and Mueller–Hinton broth (MH), for S. pseudintermedius, by the broth microdilution assay (BMD) in 96-well microtiter plates, as previously reported. Specifically, SB containing 1% Tween 80 was used instead of RPMI 1640 medium. All compounds were dissolved in ethanol and ketoconazole in dimethyl sulfoxide (DMSO). The solutions were serially diluted in SB and MH two-fold from 0.19 to 50 μM. M. pachydermatis suspension was prepared from 3-day-old colonies grown on Sabouraud agar at 30 °C. The final concentration of the yeast inoculum suspensions was equivalent to 1–3 × 10^3 CFU/mL. Bacterial suspensions were diluted to yield an optical density (OD) around 0.5 at 595 nm and further diluted to a final concentration of 1 × 10^6 CFU/mL. The compounds were added to the microbial suspension in each well yielding a final cell concentration of 5 × 10^5 CFU/mL. Positive controls included oxacillin 5 μM (2 μg/mL) and vancomycin 1.4 μM (2 μg/mL) for S. pseudintermedius or ketoconazole 0.2 μM (0.125 μg/mL) for M. pachydermatis. Negative control wells were set to contain bacteria in MH or yeasts in SB plus the amount of ethanol used to dilute each compound. Medium turbidity was measured by a microtiter plate reader (Tecan, Milan, Italy) at 595 nm after 24 h for S. pseudintermedius and 48 h for M. pachydermatis. Absorbance was proportional to microbial growth. The MIC was defined as the lowest concentration of drug that caused a prominent decrease (≥90% inhibition) in visible growth relative to that of the growth control.

[5] = test system: methicillin-susceptible S. pseudintermedius (MSSP); assay: microbe, parasite or virus in culture; format: cell-based, Staphylococcus pseudintermedius
Experimental: as §2

[6] = test system: circulating blood cells; conditions: cited from earlier work
[7] = test system: MRSP; assay: Checkerboard synergy of peptide 8 and oxacillin; format: cell-based, Staphylococcus pseudintermedius; conditions: MRSP
Experimental: The interaction between peptide 8 and oxacillin against MRSP was evaluated by the checkerboard method. Briefly, twofold serial dilutions of oxacillin distributed in horizontal rows of 96-well microtiter plate were cross-diluted vertically by twofold serial dilutions of peptide 8 to at least double the MIC. The peptide 8 tested concentration ranging from 0.19 to 12.5 μM and oxacillin from 1.25 to 25 μM (0.5 to 10 μg/mL). Microtiter plates were inoculated with bacteria at an approximate concentration of 10^5 CFU/mL and incubated at 37 °C for 24 h. […] To evaluate the effect of the combination treatment, the fractional inhibitory concentration (FIC) index for each combination was calculated as follows: FIC index = FIC of peptide 8 + FIC of oxacillin, where FIC of peptide 8 (or oxacillin) was defined as the ratio of MIC of peptide 8 (or oxacillin) in combination and MIC of peptide 8 (or oxacillin) alone. The FIC index values were interpreted as follows: ≤0.5, synergistic; >0.5 to ≤1.0, additive; >1.0 to ≤2.0, indifferent; and >2.0, antagonistic effects.

[8] = test system: M. pachydermatis
Experimental: as §2

[9] = test system: MSSP mature biofilm; assay: Mature biofilm biomass, crystal violet assay, MSSP; format: cell-based, Staphylococcus pseudintermedius; conditions: MSSP one-day-old biofilm, up to 25 μM, 24 h
Experimental: as §1

[10] = test system: human keratinocytes; conditions: at MICs; cited from earlier work
Excerpt: Azole drugs represent the first choice to treat Malassezia-related infections. It is well known that routine antifungal administration may induce acquired resistance. Peptide 8 was further investigated to verify if prolonged treatment might induce resistance in the yeast. […] Thus, a prolonged application of peptide 8 can be resolutive for yeast infection, without causing drug-resistance. By considering the good results obtained until here, we were prompted to inves ...

## CC[C@H](C)[C@H](NC(=O)[C@H](CCCNC(=N)N)NC(=O)[C@@H](CCCCN)NC(=O)[C@@H](CC(C)C)NC(=O)[C@H](Cc1ccccc1)NC(=O)[C@H](CCCCN)NC(=O)[C@H](CO)NC(=O)[C@H](Cc1ccccc1)NC(=O)[C@H](Cc1c[nH]c2ccccc12)NC(=O)[C@@H]1CCCN1C(=O)[C@@H](NC(=O)[C@@H](N)Cc1ccccc1)C(C)C)C(=O)N[C@@H](CC(C)C)C(N)=O [Peptide 8] (H-FVPWFSKF[dL][dK]RIL-NH2; N-terminus assumed)
[1]
  Effect on mature biofilm biomass: did not affect the biomass
[2]; 12.5 μM
  Reduction of biofilm viability: 38%
[2]; 25 μM
  Effect on biofilm viability at 25 μM: reduced effect
[3]
  Effect on biofilm formation: ineffective
[4]; 24 h
  MBC: 12.5 µM (≈ 21 µg/mL)
[4]; 24 h, read-out: MIC
  MIC: 6.25 µM (≈ 10.5 µg/mL)
[4]; MRSP
  MBC/MIC Ratio: 2
[5]; 24 h
  MBC: 3.12 µM (≈ 5.24 µg/mL)
[5]; 24 h, read-out: MIC
  MIC: 1.56 µM (≈ 2.62 µg/mL)
[5]; MSSP
  MBC/MIC Ratio: 2
[6]
  Hemolytic activity: did not show hemolytic activity
[7]; peptide 8 + oxacillin, checkerboard, 37 °C 24 h, ≤0.5 synergistic
  FICindex: 0.37
[7]; with 3.1 μM oxacillin, 1/4 MIC
  Concentration of peptide 8 in the most synergistic combination: 1.56 µM
[8]; M. pachydermatis
  MMC/MIC Ratio: 1
[8]; ≥3 log10 reduction in colony count from starting inoculum, agar 72 h at 30 °C
  MMC Values (minimum mycocidal concentration): 6.25 µM
[9]
  Effect on mature biofilm biomass: did not affect the biomass
[10]
  Cytotoxicity: low cytotoxicity
